We go through 17 compounds from patent US12398140B2, “Substituted pyrrolo [2,3-d]pyrimidines for treating familial dysautonomia” (PTC THERAPEUTICS, INC., priority 2019, dated 2025).

Structures can show the parent of a compound that is named as a salt.

The test system of the test is Elongator complex protein 1 (ELPI, also referred to as IKBKAP). The test can be described thus: IKBKAP-HTRF assay (IKBKAP protein in lysates of FD patient-derived fibroblasts). Type of test: cell-based, human. The conditions noted are these: FD patient-derived fibroblasts GM04589, 48 hours, 7-point concentration curve. The protocol: The assay is used for the quantitative determination of Elongator complex protein 1 (ELPI, also referred to as IKBKAP) concentration in cell lysates using the HTRF® (Homogeneous Time-Resolved Fluorescence) technology. IKBKAP is detected in a sandwich HTRF assay by use of an anti-IKAP antibody labeled with a donor and an anti-IKAP antibody labeled with an acceptor.
Cells were thawed and incubated in DMEM-10% FBS for 72 hours. Cells were trypsinized, counted, and re-suspended to a concentration of 50,000 cells/ml in DMEM-10% FBS. A 199 μL aliquot of the cell suspensions were plated at 10,000 cells per well in a 96 well microtiter plate and incubated for 3 to 5 hours. […] Test compounds were serially diluted 3.16-fold in 100% DMSO to generate a 7-point concentration curve. A 1 μL aliquot of 200× compound solution was transferred to cell-containing wells, and cells were incubated for 48 hours in a cell culture incubator (37° C., 5% CO2, 100% relative humidity). Triplicate samples were set up for each compound concentration. After 48 hours, the supernatant was removed from the cells and 50 μL of the 1×LB4 lysis buffer, containing protease inhibitors, was added to the cells and incubated with shaking at room temperature for 1 hour. A 36 μL aliquot of this lysate was subsequently transferred to the 384-well plate containing 4 μL of the antibody solution (1:50 dilution of anti IKAP d2 and anti-IKAP K(9+8) in detection buffer). The 384-well plate was then centrifuged for 1 minute to bring the solutions to the bottom of the plate and incubated overnight at 4° C. Fluorescence for each well of the plate at 665 nm and 620 nm was measured was on the EnVision plate reader (Perkin Elmer). The ΔF for each sample is calculated by:
[formula] wherein Signal is the normalized fluorescence for each sample well and Blank is the average normalized average fluorescence for the Blank control wells.
The maximum fold increase (MFI) in IKBKAP protein abundance for compounds of Formula (I) or a form thereof relative to the vehicle control are provided in Table 1. MFI was calculated by dividing the ΔF value for each sample well by the sample ΔF for the vehicle control wells.
The EC2x for IKBKAP protein expression obtained from the 7-point concentration curve generated for each test compound according to the protocol in Biological Example 1 are also provided in Table 1. The term “EC2x for IKBKAP protein expression” is defined as the concentration of test compound that is effective in producing two times the amount of IKBKAP protein in a FD patient cell compared to the amount produced from the DMSO vehicle control.
A general note: In TR-FRET formats the signal depends on donor and acceptor labels being close together.
With `Cl.NCCCc1cc2c(NCc3ccco3)nc(Cl)nc2[nH]1` [Cpd 1, 6-(3-aminopropyl)-2-chloro-N-[(furan-2-yl)methyl]-7H-pyrrolo[2,3-d]pyrimidin-4-amine hydrochloride], the “EC2x for IKBKAP protein expression (concentration producing two times the amount of IKBKAP protein vs DMSO vehicle control)” value was “*** (between >0.02 μM and ≤0.5 μM is indicated by three stars (***))”; the “MFI (maximum fold increase in IKBKAP protein abundance relative to the vehicle control)” value was “**** (between >3.9 and ≤4.9 is indicated by four stars (****))”.

On to `Cl.NCCCc1[nH]c2nc(Cl)nc(NCc3ccco3)c2c1F` [Cpd 2, 6-(3-aminopropyl)-2-chloro-5-fluoro-N-[(furan-2-yl)methyl]-7H-pyrrolo[2,3-d]pyrimidin-4-amine hydrochloride], for which the “EC2x for IKBKAP protein expression (concentration producing two times the amount of IKBKAP protein vs DMSO vehicle control)” value is “*** (between >0.02 μM and ≤0.5 μM is indicated by three stars (***))”; the “MFI (maximum fold increase in IKBKAP protein abundance relative to the vehicle control)” value is “*** (between >2.9 and ≤3.9 is indicated by three stars (***))”.

With `CNCCc1cc2c(NCc3ccco3)nc(Cl)nc2[nH]1.Cl` [Cpd 3, 2-chloro-N-[(furan-2-yl)methyl]-6-[2-(methylamino)ethyl]-7H-pyrrolo[2,3-d]pyrimidin-4-amine hydrochloride], the “EC2x for IKBKAP protein expression (concentration producing two times the amount of IKBKAP protein vs DMSO vehicle control)” value is “*** (between >0.02 μM and ≤0.5 μM is indicated by three stars (***))”; the “MFI (maximum fold increase in IKBKAP protein abundance relative to the vehicle control)” value is “***** (>4.9 is indicated by five stars (*****))”.

Take `CNC(C)Cc1cc2c(NCc3ccco3)nc(Cl)nc2[nH]1.Cl` (stereo not shown) [Cpd 4, 2-chloro-N-[(furan-2-yl)methyl]-6-[2-(methylamino)propyl]-7H-pyrrolo[2,3-d]pyrimidin-4-amine hydrochloride]: the “EC2x for IKBKAP protein expression (concentration producing two times the amount of IKBKAP protein vs DMSO vehicle control)” value is “*** (between >0.02 μM and ≤0.5 μM is indicated by three stars (***))”; the “MFI (maximum fold increase in IKBKAP protein abundance relative to the vehicle control)” value was “**** (between >3.9 and ≤4.9 is indicated by four stars (****))”.

`CNCCc1cc2c(NCc3nccs3)nc(Cl)nc2[nH]1.Cl` [Cpd 5, 2-chloro-6-[2-(methylamino)ethyl]-N-[(1,3-thiazol-2-yl)methyl]-7H-pyrrolo[2,3-d]pyrimidin-4-amine hydrochloride]: the “EC2x for IKBKAP protein expression (concentration producing two times the amount of IKBKAP protein vs DMSO vehicle control)” value was “*** (between >0.02 μM and ≤0.5 μM is indicated by three stars (***))”; the “MFI (maximum fold increase in IKBKAP protein abundance relative to the vehicle control)” value is recorded as “***** (>4.9 is indicated by five stars (*****))”.

Take `CNCCc1[nH]c2nc(Cl)nc(NCc3ccco3)c2c1F.Cl` [Cpd 6, 2-chloro-5-fluoro-N-[(furan-2-yl)methyl]-6-[2-(methylamino)ethyl]-7H-pyrrolo[2,3-d]pyrimidin-4-amine hydrochloride]: the “EC2x for IKBKAP protein expression (concentration producing two times the amount of IKBKAP protein vs DMSO vehicle control)” value is “*** (between >0.02 μM and ≤0.5 μM is indicated by three stars (***))”; the “MFI (maximum fold increase in IKBKAP protein abundance relative to the vehicle control)” value is listed as “***** (>4.9 is indicated by five stars (*****))”.

As for `CN(C)CCc1cc2c(NCc3ccco3)nc(Cl)nc2[nH]1` [Cpd 7, 2-chloro-6-[2-(dimethylamino)ethyl]-N-[(furan-2-yl)methyl]-7H-pyrrolo[2,3-d]pyrimidin-4-amine], the “EC2x for IKBKAP protein expression (concentration producing two times the amount of IKBKAP protein vs DMSO vehicle control)” value is recorded as “* (An EC2x>1 μM is indicated by one star (*))” and the “MFI (maximum fold increase in IKBKAP protein abundance relative to the vehicle control)” value was “* (An MFI≤1.9 is indicated by one star (*))”.

As to `Cl.NCCc1cc2c(NCc3ccco3)nc(Cl)nc2[nH]1` [Cpd 8, 6-(2-aminoethyl)-2-chloro-N-[(furan-2-yl)methyl]-7H-pyrrolo[2,3-d]pyrimidin-4-amine hydrochloride], the “EC2x for IKBKAP protein expression (concentration producing two times the amount of IKBKAP protein vs DMSO vehicle control)” value was “*** (between >0.02 μM and ≤0.5 μM is indicated by three stars (***))”; the “MFI (maximum fold increase in IKBKAP protein abundance relative to the vehicle control)” value was “*** (between >2.9 and ≤3.9 is indicated by three stars (***))”.

For the compound `[2H]C([2H])([2H])NCCc1cc2c(NCc3ccco3)nc(Cl)nc2[nH]1` [Cpd 9, 2-chloro-N-[(furan-2-yl)methyl]-6-{2-[(^2H3)methylamino]ethyl}-7H-pyrrolo[2,3-d]pyrimidin-4-amine hydrochloride], the “EC2x for IKBKAP protein expression (concentration producing two times the amount of IKBKAP protein vs DMSO vehicle control)” value was “*** (between >0.02 μM and ≤0.5 μM is indicated by three stars (***))”; the “MFI (maximum fold increase in IKBKAP protein abundance relative to the vehicle control)” value is “**** (between >3.9 and ≤4.9 is indicated by four stars (****))”.

As for `C[C@H](N)Cc1[nH]c2nc(Cl)nc(NCc3ccco3)c2c1F.Cl` [Cpd 10, 6-[(2S)-2-aminopropyl]-2-chloro-5-fluoro-N-[(furan-2-yl)methyl]-7H-pyrrolo[2,3-d]pyrimidin-4-amine hydrochloride], the “EC2x for IKBKAP protein expression (concentration producing two times the amount of IKBKAP protein vs DMSO vehicle control)” value was “**** (between >0.005 μM and ≤0.02 μM is indicated by four stars (****))”; the “MFI (maximum fold increase in IKBKAP protein abundance relative to the vehicle control)” value is “***** (>4.9 is indicated by five stars (*****))”.

`CC(C)[C@H](N)Cc1cc2c(NCc3ccco3)nc(Cl)nc2[nH]1.Cl` [Cpd 11, 6-[(2R)-2-amino-3-methylbutyl]-2-chloro-N-[(furan-2-yl)methyl]-7H-pyrrolo[2,3-d]pyrimidin-4-amine hydrochloride]: the “EC2x for IKBKAP protein expression (concentration producing two times the amount of IKBKAP protein vs DMSO vehicle control)” value is “*** (between >0.02 μM and ≤0.5 μM is indicated by three stars (***))”; the “MFI (maximum fold increase in IKBKAP protein abundance relative to the vehicle control)” value is “**** (between >3.9 and ≤4.9 is indicated by four stars (****))”.

Consider `CC(C)[C@H](N)Cc1cc2c(NCc3ccncc3)nc(Cl)nc2[nH]1.Cl.Cl` [Cpd 12, 6-[(2R)-2-amino-3-methylbutyl]-2-chloro-N-[(pyridin-4-yl)methyl]-7H-pyrrolo[2,3-d]pyrimidin-4-amine dihydrochloride], for which the “EC2x for IKBKAP protein expression (concentration producing two times the amount of IKBKAP protein vs DMSO vehicle control)” value is “*** (between >0.02 μM and ≤0.5 μM is indicated by three stars (***))”; the “MFI (maximum fold increase in IKBKAP protein abundance relative to the vehicle control)” value is reported as “***** (>4.9 is indicated by five stars (*****))”.

For the compound `C[C@H](N)Cc1[nH]c2nc(Cl)nc(NCc3ccco3)c2c1Cl.Cl` [Cpd 13, 6-[(2S)-2-aminopropyl]-2,5-dichloro-N-[(furan-2-yl)methyl]-7H-pyrrolo[2,3-d]pyrimidin-4-amine hydrochloride], the “EC2x for IKBKAP protein expression (concentration producing two times the amount of IKBKAP protein vs DMSO vehicle control)” value is recorded as “***** (≤0.005 μM is indicated by five stars (*****))” and the “MFI (maximum fold increase in IKBKAP protein abundance relative to the vehicle control)” value was “***** (>4.9 is indicated by five stars (*****))”.

As for `CC(C)[C@H](N)Cc1[nH]c2nc(Cl)nc(NCc3ccco3)c2c1F.Cl` [Cpd 14, 6-[(2R)-2-amino-3-methylbutyl]-2-chloro-5-fluoro-N-[(furan-2-yl)methyl]-7H-pyrrolo[2,3-d]pyrimidin-4-amine hydrochloride], the “EC2x for IKBKAP protein expression (concentration producing two times the amount of IKBKAP protein vs DMSO vehicle control)” value was “**** (between >0.005 μM and ≤0.02 μM is indicated by four stars (****))”; the “MFI (maximum fold increase in IKBKAP protein abundance relative to the vehicle control)” value was “***** (>4.9 is indicated by five stars (*****))”.

In the case of `CC(C)[C@H](N)Cc1[nH]c2nc(Cl)nc(NCc3ccncc3)c2c1F.Cl.Cl` [Cpd 15, 6-[(2R)-2-amino-3-methylbutyl]-2-chloro-5-fluoro-N-[(pyridin-4-yl)methyl]-7H-pyrrolo[2,3-d]pyrimidin-4-amine dihydrochloride], the “EC2x for IKBKAP protein expression (concentration producing two times the amount of IKBKAP protein vs DMSO vehicle control)” value was “*** (between >0.02 μM and ≤0.5 μM is indicated by three stars (***))”; the “MFI (maximum fold increase in IKBKAP protein abundance relative to the vehicle control)” value was “**** (between >3.9 and ≤4.9 is indicated by four stars (****))”.

As to `C[C@H](N)Cc1cc2c(NCc3ccco3)nc(Cl)nc2[nH]1` [Cpd 16, 6-[(2S)-2-aminopropyl]-2-chloro-N-[(furan-2-yl)methyl]-7H-pyrrolo[2,3-d]pyrimidin-4-amine], the “EC2x for IKBKAP protein expression (concentration producing two times the amount of IKBKAP protein vs DMSO vehicle control)” value was “**** (between >0.005 μM and ≤0.02 μM is indicated by four stars (****))”; the “MFI (maximum fold increase in IKBKAP protein abundance relative to the vehicle control)” value was “**** (between >3.9 and ≤4.9 is indicated by four stars (****))”.

`CNCCc1[nH]c2nc(Cl)nc(NCc3ccco3)c2c1Cl.Cl` [Cpd 17, 2,5-dichloro-N-[(furan-2-yl)methyl]-6-[2-(methylamino)ethyl]-7H-pyrrolo[2,3-d]pyrimidin-4-amine hydrochloride]: the “EC2x for IKBKAP protein expression (concentration producing two times the amount of IKBKAP protein vs DMSO vehicle control)” value is “*** (between >0.02 μM and ≤0.5 μM is indicated by three stars (***))”; the “MFI (maximum fold increase in IKBKAP protein abundance relative to the vehicle control)” value was “**** (between >3.9 and ≤4.9 is indicated by four stars (****))”.
